The values that follow are results of earlier work, collected in patent publication US6887210B2, “Devices and methods for obtaining mammary fluid samples for evaluating breast diseases, including cancer” (Atossa Healthcare, Inc., priority 2000, dated 2005).

The conditions of the data set: rapid removal from plasma by kidney, liver and mammary gland.

Turning to `CC[C@H](C)[C@@H]1NC(=O)[C@H](Cc2ccc(O)cc2)NC(=O)[C@@H](N)CSSC[C@@H](C(=O)N2CCC[C@H]2C(=O)N[C@@H](CC(C)C)C(=O)NCC(N)=O)NC(=O)[C@H](CC(N)=O)NC(=O)[C@H](CCC(N)=O)NC1=O` [oxytocin], the “half-life of oxytocin in the human bloodstream / circulation” value was 10 to 15 min.
